What all share (format): in vivo, mice
Test [1] has as its system breast cancer metastasis model, BCa-1. The test can be described thus: Cross-comparison of PEG-Prom-mediated SPECT imaging and FDG-PET. The note with it: BCa-1, PET acquired same day as SPECT. Here is the method: FIGS. 7A-7D. Detection and localization of metastatic masses of melanoma after the systemic administration of pPEG-HSV1 tk by SPECT-CT imaging. Transverse, coronal and sagittal views of co-registered SPECT-CT images of Mel-2 (7A) and Mel-3 (7B, 7C and 7D) from FIG. 6C. All images were obtained at 24 h after [^125I]FIAU injection, which was 70 h after the IV administration of pPEG-HSV1 tk/PEI polyplex. Gross anatomical details of the metastatic masses that were located based on the SPECT-CT images in 7A, 7B, 7C and 7D. Multiple metastatic sites were detected by SPECT-CT imaging in Mel-2 (7A, dotted circle). […] (7B) Accumulated radioactivity was detected adjacent to the thoracic mid-spine toward the left side (white arrow), which corresponded to a tumor mass at this location. […] Melanoma was uncovered immediately above the diaphragm (f, white dotted circle) and in the left inguinal lymph node, correlating with 7C and 7D. Cross-comparison of the PEG-Prom-mediated imaging and FDG-PET in abreast cancer metastasis model, BCa-1. Two nodules (Tu-1 and -2) were detected by [^125I]FIAU-SPECT near the heart and were confirmed by necropsy. […] SPECT images were acquired 48 h post-injection of [^125I]FIAU, which was 94 h after the pPEG-HSV1 tk/PEI delivery. The PET images were acquired on the same day as the SPECT data. […]

Test [2] deals with PC3-ML-Luc metastases. The test is described as follows: FDG-PET/CT, intra-cardiac PC3-ML-Luc metastasis model. To be noted: PCa-3, same mouse. As for the experimental part: (§1) FIGS. 17A-E. AEG-Prom-based SPECT/CT imaging detects distant metastasis not identified by NaF- or FDG-PET/CT. The experimental metastases model, PCa-3 (n=5), was developed by intra-cardiac injection of 5×10^4 PC3-ML-Luc cells, SPECT/CT images for PCa-3 and a representative healthy control Ctrl-1 were obtained at 18-20 h after [^125I]FIAU injection, which was 66-68 h after IV administration of pAEG-HSV1tk-PEI polyplex. (17A, 17B) NaF-PET/CT, AEG-Prom SPECT/CT and FDG-PET imaging in Ctrl-1 (17A) and the PC3-ML-Luc model. PCa-3 (17B). (17D, 17E) Gross pathology of the metastatic nodules that were located on the basis of the SPECT/CT images. ([…]) Ex vivo BLI of the dissected organs, imaged within 20 min of euthanasia. […] A possible L1 lesion was detected by FDG/PET (17B). […]
(§2) Cloning of plasmid constructs. pPEG-Luc and pAEG-Luc were generated as described previously (3, 28). […] Luminescence was normalized for transfection efficiency by co-transfection with a vector expressing renilla luciferase, pGL4.74[hRluc/TK] […] After 48 h of transfection, the expression level of the Luc reporter was measured by the Dual Luciferase Reporter Assay kit (Promega). Luminescence was normalized for cell number (by μg total protein) using the BCA Protein Assay Kit (Pierce Biotechnology, Rockford, Ill.). […]

Test [3] concerns PC3-ML-Luc metastases. The test is described as follows: NaF-PET/CT, intra-cardiac PC3-ML-Luc metastasis model. The note with it: PCa-3. As for the experimental part: as §1, §2

The structures appear in SMILES notation.

We go through two molecules from patent US20200384135A1, “CANCER IMAGING WITH THERAPY: THERANOSTICS” (Virginia Commonwealth University, priority 2010, published 2020).

With `OC[C@H]1OC(O)[C@H]([18F])[C@@H](O)[C@@H]1O` (stereo partly drawn) [FDG, [^18F]fluorodeoxyglucose], the “Detection of nodule Tu-2 (smaller nodule attached to the heart)” value in test [1] was “not obvious in the PET image”. Moreover, the “Detection of metastatic lesions by FDG-PET/CT” value in test [2] is given as “only able to identify a lesion in the left shoulder”.

With `[18F-].[Na+]` [NaF, [^18F]NaF], the “Detection of metastatic lesions by NaF-PET/CT” value in test [3] is “failed to identify the metastases within tibia and axial skeleton”.
